Data reported in patent publication EP4806891A1 (Kangbaida (Sichuan) Biotechnology Co., Ltd., priority 2023, dated 2025).

What was measured:
[1] = tested on: IL-6; assay: In vivo inhibition assay of IL-6; set-up: species or system C57BL/6 female mice; settings: Mus musculus, ip; mice, test compound 1 mg/kg by gavage, 25 µg R848 intraperitoneally 1 h later, serum IL-6 2 h later; read-out: IL-6 inhibition rate (intraperitoneal injection after 1 h)
Description: In vivo inhibition assay of IL-6
Experimental materials: Preparation of compound solutions: R848 was prepared with pure water (sterilized), with a final concentration of 25 µg/100 µL; the test compound was prepared with sodium citrate buffer at pH = 3, with a final concentration of 0.1 mg/mL.
Experimental animals: C57BL/6 female mice were purchased from GemPharmatech, aged 6-8 weeks.
Experimental methods: C57BL/6 female mice were randomly divided into a blank group, control group, and experimental group, with 8 in each group.
Blank group: Blood was collected from the mice after 12 h of fasting.
Control group: The mice were administered sodium citrate buffer at pH = 3 by gavage after 12 hours of fasting, and the remaining procedures were consistent with those of the experimental group.
Experimental group: After fasting for 12 h, the mice were administered with the test compound (1 mg/kg) by gavage, followed by an intraperitoneal injection of 25 µg R848 (purchased from MCE) 1 h later; 2 h later, the eyeballs were removed for blood collection, the serum was allowed to stand at room temperature for 30 min, then centrifuged for 10 min (3000 rpm), the supernatant was collected, and the serum IL-6 concentration was measured using an IL-6 ELISA kit. The IL-6 inhibition rate was calculated based on the serum IL-6 concentrations of the control and experimental groups. Calculation formula: inhibition rate = (C2-C3)/(C2-C1)×100%. • C1: serum IL-6 concentration of the blank group; • C2: serum IL-6 concentration of the control group; • C3: serum IL-6 concentration of the experimental group.
Four additional groups of experiments were performed separately according to the above experimental procedures, and the differences between these four groups and the above experiment were respectively: "25 µg R848 (purchased from MCE) was intraperitoneally injected after 4 h", "25 µg R848 (purchased from MCE) was intraperitoneally injected after 8 h", "25 µg R848 (purchased from MCE) was intraperitoneally injected after 16 h", and "25 µg R848 (purchased from MCE) was intraperitoneally injected after 24 h". Table 2: In vivo inhibition assay of IL-6

[2] = target: T1, HEK-Blue-hTLR8 cells (Homo sapiens, UniProt Q9NR97); assay: HEK-Blue-hTLR8 cell inhibition assay; assay type: cell-based; settings: R848 3 µM, 16 h, OD 620 nm, read-out: TLR8 IC50
T1 construct: expressed in transfected cells; host or cells: HEK-Blue-hTLR8 cells (HEK293-derived reporter line)
T1 sequence (Q9NR97 27-1041): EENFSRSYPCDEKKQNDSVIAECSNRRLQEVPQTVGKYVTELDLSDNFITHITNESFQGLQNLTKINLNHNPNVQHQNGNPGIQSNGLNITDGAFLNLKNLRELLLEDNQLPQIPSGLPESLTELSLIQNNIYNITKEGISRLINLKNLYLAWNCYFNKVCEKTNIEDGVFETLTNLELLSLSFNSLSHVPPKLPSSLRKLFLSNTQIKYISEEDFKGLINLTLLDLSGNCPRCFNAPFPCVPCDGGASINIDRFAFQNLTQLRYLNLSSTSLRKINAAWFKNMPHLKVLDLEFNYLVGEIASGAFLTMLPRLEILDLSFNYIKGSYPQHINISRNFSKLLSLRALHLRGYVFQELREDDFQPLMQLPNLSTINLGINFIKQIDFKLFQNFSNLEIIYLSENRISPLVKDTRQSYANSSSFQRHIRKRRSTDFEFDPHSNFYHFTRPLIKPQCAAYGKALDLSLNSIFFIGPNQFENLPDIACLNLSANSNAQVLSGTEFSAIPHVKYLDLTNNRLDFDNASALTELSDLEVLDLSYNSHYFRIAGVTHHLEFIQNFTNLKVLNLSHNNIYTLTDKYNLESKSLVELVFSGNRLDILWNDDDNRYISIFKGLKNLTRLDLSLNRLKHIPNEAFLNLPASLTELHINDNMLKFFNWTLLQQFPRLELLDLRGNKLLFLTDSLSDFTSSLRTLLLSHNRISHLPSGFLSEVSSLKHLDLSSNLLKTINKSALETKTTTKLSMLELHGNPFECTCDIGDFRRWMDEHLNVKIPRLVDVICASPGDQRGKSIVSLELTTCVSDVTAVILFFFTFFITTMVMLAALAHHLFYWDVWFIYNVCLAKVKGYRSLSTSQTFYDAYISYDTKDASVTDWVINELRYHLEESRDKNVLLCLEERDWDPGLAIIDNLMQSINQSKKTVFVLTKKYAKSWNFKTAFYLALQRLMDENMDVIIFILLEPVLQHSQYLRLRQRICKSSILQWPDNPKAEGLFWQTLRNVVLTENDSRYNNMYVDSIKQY
Method in brief: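 Cells were pre-incubated 4 h, then co-treated 16 h at 37 °C with compound (10 doses, 0.5–10000 nM final) plus R848 (0.8 µM for TLR7, 3 µM for TLR8) or ODN2006 (1 µM, TLR9). Reporter OD620 gave inhibition relative to DMSO blank and agonist-only controls; IC50 came from curve fitting.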

SMILES	IC50 [2] [nM]	inhibition at 1 mg/kg [1] [%]
CN1CCC(c2nnc([C@]34CN(c5ccc(C#N)n6nccc56)C[C@@]3(C(F)(F)F)C4)o2)CC1 [Compound 59, 4-((1S,5R)-1-(5-(1-methylpiperidin-4-yl)-1,3,4-oxadiazol-2-yl)-5-(trifluoromethyl)-3-azabicyclo[3.1.0]hexan-3-yl)pyrazolo[1,5-a]pyridine-7-carbonitrile]	< 1000	> 80
CN1CC(Cc2nnc([C@]34CN(c5ccc(C#N)n6ncc(F)c56)C[C@@]3(C(F)(F)F)C4)o2)C1 [Compound 30, 3-fluoro-4-((1S,5R)-1-(5-((1-methylazetidin-3-yl)methyl)-1,3,4-oxadiazol-2-yl)-5-(trifluoromethyl)-3-azabicyclo[3.1.0]hexan-3-yl)pyrazolo[1,5-a]pyridine-7-carbonitrile]	< 100	> 90

Now from value to molecule, other results behind:

IC50 [2] [nM]	SMILES	inhibition at 1 mg/kg [1] [%]
< 100	CN1CC(Cc2nnc([C@]34CN(c5ccc(C(F)(F)F)c6ncccc56)C[C@@]3(C(F)(F)F)C4)o2)C1 [Compound 95, 2-((1-methylazetidin-3-yl)methyl)-5-((1S,5R)-5-(trifluoromethyl)-3-(8-(trifluoromethyl)quinolin-5-yl)-3-azabicyclo[3.1.0]hexan-1-yl)-1,3,4-oxadiazole]	> 90
< 100	CN1CCC(c2nnc([C@]34CN(c5ccc(OC(F)(F)F)c6ncccc56)C[C@@]3(C(F)(F)F)C4)o2)CC1 [Compound 64, 2-(1-methylpiperidin-4-yl)-5-((1S,5R)-5-(trifluoromethyl)-3-(8-(trifluoromethoxy)quinolin-5-yl)-3-azabicyclo[3.1.0]hexan-1-yl)-1,3,4-oxadiazole]	> 70
< 100	CN1CCC(Oc2nnc([C@]34CN(c5ccc(C#N)c6ncnn56)C[C@@]3(C(F)(F)F)C4)o2)CC1 [Compound 97, 5-((1S,5R)-1-(5-((1-methylpiperidin-4-yl)oxy)-1,3,4-oxadiazol-2-yl)-5-(trifluoromethyl)-3-azabicyclo[3.1.0]hexan-3-yl)-[1,2,4]triazolo[1,5-a]pyridine-8-carbonitrile]	> 90
